Experimental findings from patent publication US7157452B2, “Substituted 4,9-dihydrocyclopenta{imn}phenanthridine-5-ones derivatives thereof and their uses” (MGI GP, Inc., priority 2001, dated 2007) are described below.

SMILES strings stand for the structures. Like-named read-outs stand apart in the source and are kept apart here.

In this test the target is T1, purified recombinant human PARP (Homo sapiens, UniProt P09874).
T1 construct: purchased Trevigan (Gaithersburg, Md.)
The experiment in a line: PARP enzyme assay with [3H]NAD, scintillation counting. The class given is biochemical. The protocol: The reaction is initiated by incubating the mixture at 25° C. After 15 minutes of incubation, the reaction is terminated by adding 500 microliters of ice cold 20% (w/v) trichloroacetic acid. The precipitate formed is transferred onto a glass fiber filter (Packard Unifilter-GF/B) and washed three times with ethanol. After the filter is dried, the radioactivity is determined by scintillation counting.
Using the PARP assay described above, approximate IC50 (μM) values were obtained as shown in the following Table III, which also include specific embodiments of the compounds of the present invention: […]

Where [1] appears, read: Table III, read-out: approximate IC50.

T1 sequence (P09874 whole entry): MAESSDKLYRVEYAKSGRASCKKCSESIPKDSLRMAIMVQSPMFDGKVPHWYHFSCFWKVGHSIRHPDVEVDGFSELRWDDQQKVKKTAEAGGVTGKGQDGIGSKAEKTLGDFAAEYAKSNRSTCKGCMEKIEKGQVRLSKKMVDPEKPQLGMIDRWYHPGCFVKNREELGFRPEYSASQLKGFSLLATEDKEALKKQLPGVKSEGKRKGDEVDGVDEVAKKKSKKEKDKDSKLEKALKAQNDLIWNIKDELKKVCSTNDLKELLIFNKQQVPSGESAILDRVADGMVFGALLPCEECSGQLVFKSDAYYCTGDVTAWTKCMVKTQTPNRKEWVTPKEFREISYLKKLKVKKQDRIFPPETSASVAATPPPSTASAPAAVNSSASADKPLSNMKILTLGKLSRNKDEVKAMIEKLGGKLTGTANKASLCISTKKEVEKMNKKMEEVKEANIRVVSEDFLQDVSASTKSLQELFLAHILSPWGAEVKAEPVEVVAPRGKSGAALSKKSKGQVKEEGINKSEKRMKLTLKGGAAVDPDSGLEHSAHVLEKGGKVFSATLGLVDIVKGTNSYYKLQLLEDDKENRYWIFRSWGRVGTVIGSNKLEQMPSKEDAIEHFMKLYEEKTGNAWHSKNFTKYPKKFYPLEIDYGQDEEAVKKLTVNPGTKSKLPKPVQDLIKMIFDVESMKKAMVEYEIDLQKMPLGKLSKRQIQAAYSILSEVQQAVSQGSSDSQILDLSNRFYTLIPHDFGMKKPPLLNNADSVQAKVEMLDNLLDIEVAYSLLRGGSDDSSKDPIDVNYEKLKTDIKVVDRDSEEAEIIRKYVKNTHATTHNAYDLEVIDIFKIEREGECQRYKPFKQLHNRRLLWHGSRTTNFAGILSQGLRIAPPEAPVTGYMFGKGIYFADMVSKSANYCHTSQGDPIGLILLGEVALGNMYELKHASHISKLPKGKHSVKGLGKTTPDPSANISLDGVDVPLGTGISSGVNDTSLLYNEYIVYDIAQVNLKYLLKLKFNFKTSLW

For orientation: IC50 means the concentration that inhibits the measured activity by half. `CCOC(=O)C1CCCN(S(=O)(=O)c2ccc3[nH]c(=O)c4cccc5c4c3c2C5)C1` (stereo not drawn) [Example 2, 1-(5-Oxo-5,9-dihydro-4H-cyclopenta[lmn]phenanthridine-1-sulfonyl)-piperidine-3-carboxylic acid ethyl ester]: the half-inhibitory concentration (IC50) under setting [1] stood at 0.137 µM and the IC50 (examples table, read-out: IC50) is 0.137 µM.

Consider `O=c1[nH]c2ccc(S(=O)(=O)N3CCN(CC4CCCO4)CC3)c3c2c2c(cccc12)C3` (stereo not drawn) [Example 3], for which the 50% inhibitory concentration (IC50) came to 0.247 µM under setting [1] and 0.247 µM (examples table, read-out: IC50).

For the compound `O=c1[nH]c2ccc(S(=O)(=O)NCCCc3ccccc3)c3c2c2c(cccc12)C3` [Example 4], the half-inhibitory concentration (IC50) runs as follows: under setting [1], 1.13 µM; (examples table, read-out: IC50) 1.13 µM.

In the case of `O=c1[nH]c2ccc(S(=O)(=O)NCCN3CCCC3)c3c2c2c(cccc12)C3` [Example 5], the IC50 runs as follows: under setting [1], 0.089 µM; (examples table, read-out: IC50) 0.089 µM.

Turning to `O=c1[nH]c2ccc(S(=O)(=O)NCCCN3CCOCC3)c3c2c2c(cccc12)C3` [Example 6], the IC50 under setting [1] came to 0.063 µM and the IC50 (examples table, read-out: IC50) was 0.063 µM.

As to `O=c1[nH]c2ccc(S(=O)(=O)N3CCN(c4ccc(C(F)(F)F)cc4)CC3)c3c2c2c(cccc12)C3` [Example 7], the 50% inhibitory concentration (IC50) runs as follows: under setting [1], 0.269 µM; (examples table, read-out: IC50) 0.269 µM.

Turning to `O=c1[nH]c2ccc(S(=O)(=O)N3CCN(c4ccc(F)cc4)CC3)c3c2c2c(cccc12)C3` [Example 8], the IC50 by setting is: under setting [1], 0.335 µM; (examples table, read-out: IC50) 0.335 µM.

Regarding `O=c1[nH]c2ccc(S(=O)(=O)N3CCN(c4ccc(F)cc4F)CC3)c3c2c2c(cccc12)C3` [Example 9], the IC50 turned out to be 0.211 µM under setting [1] and 0.211 µM (examples table, read-out: IC50).

`CN1CCN(NS(=O)(=O)c2ccc3[nH]c(=O)c4cccc5c4c3c2C5)CC1` [Example 10]: the IC50 is, setting by setting: under setting [1], 0.129 µM; (examples table, read-out: IC50) 0.129 µM.

In the case of `O=C(CNCCN1CCCC1)Nc1ccc2[nH]c(=O)c3cccc4c3c2c1C4` [Example 11], the 50% inhibitory concentration (IC50) came out at 0.049 µM under setting [1] and 0.049 µM (examples table, read-out: IC50).

In the case of `CN1CCN(CCCNS(=O)(=O)c2ccc3[nH]c(=O)c4cccc5c4c3c2C5)CC1` [Example 12], the IC50 was found to be 0.064 µM under setting [1] and 0.064 µM (examples table, read-out: IC50).

For `CCN(CC)CCNS(=O)(=O)c1ccc2[nH]c(=O)c3cccc4c3c2c1C4` [Example 13], the IC50 runs as follows: under setting [1], 0.048 µM; (examples table, read-out: IC50) 0.048 µM.

Take `CCN(CC)CCCNS(=O)(=O)c1ccc2[nH]c(=O)c3cccc4c3c2c1C4` [Example 14]: the half-maximal inhibitory concentration (IC50) is, setting by setting: under setting [1], 0.091 µM; (examples table, read-out: IC50) 0.091 µM.

For the compound `O=c1[nH]c2ccc(S(=O)(=O)NCCc3ccccn3)c3c2c2c(cccc12)C3` [Example 15], the IC50 runs as follows: under setting [1], 0.114 µM; (examples table, read-out: IC50) 0.114 µM.

As to `O=c1[nH]c2ccc(S(=O)(=O)NN3CCOCC3)c3c2c2c(cccc12)C3` [Example 16], the IC50 reads like this: under setting [1], 0.092 µM; (examples table, read-out: IC50) 0.092 µM.

In the case of `CN(C)CCN(C)S(=O)(=O)c1ccc2[nH]c(=O)c3cccc4c3c2c1C4` [Example 17], the IC50 reads like this: under setting [1], 0.154 µM; (examples table, read-out: IC50) 0.154 µM.

Turning to `CN(C)CCCN(C)S(=O)(=O)c1ccc2[nH]c(=O)c3cccc4c3c2c1C4` [Example 18], the IC50 under setting [1] turned out to be 0.11 µM and the concentration for half-maximal inhibition (IC50) (examples table, read-out: IC50) was 0.11 µM.

On to `CN1CCN(CCCNS(=O)(=O)c2ccc3[nH]c(=O)c4cccc5c4c3c2C5)CC1` [Example 19], for which the IC50 came to 0.052 µM under setting [1] and 0.052 µM (examples table, read-out: IC50).

Consider `CCN(CC)CCNS(=O)(=O)c1ccc2[nH]c(=O)c3cccc4c3c2c1C4` [Example 20], for which the concentration for half-maximal inhibition (IC50) reads like this: under setting [1], 0.077 µM; (examples table, read-out: IC50) 0.077 µM.

For the compound `CN(C)CCCN1CCN(S(=O)(=O)c2ccc3[nH]c(=O)c4cccc5c4c3c2C5)CC1` [Example 21], the concentration for half-maximal inhibition (IC50) came to 0.064 µM under setting [1] and 0.064 µM (examples table, read-out: IC50).

Take `O=c1[nH]c2ccc(S(=O)(=O)N3CCN(CCN4CCCC4)CC3)c3c2c2c(cccc12)C3` [Example 22]: the IC50 under setting [1] is 0.115 µM and the IC50 (examples table, read-out: IC50) stood at 0.115 µM.

Turning to `CN1CCC(N2CCN(S(=O)(=O)c3ccc4[nH]c(=O)c5cccc6c5c4c3C6)CC2)CC1` [Example 23], the IC50 is, setting by setting: under setting [1], 0.166 µM; (examples table, read-out: IC50) 0.166 µM.

For `O=c1[nH]c2ccc(S(=O)(=O)N3CCN(c4ccncc4)CC3)c3c2c2c(cccc12)C3` [Example 24], the half-inhibitory concentration (IC50) reads like this: under setting [1], 0.929 µM; (examples table, read-out: IC50) 0.929 µM.

`CN1CCC(CN2CCN(S(=O)(=O)c3ccc4[nH]c(=O)c5cccc6c5c4c3C6)CC2)CC1` [Example 25]: the half-inhibitory concentration (IC50) under setting [1] was 0.165 µM and the 50% inhibitory concentration (IC50) (examples table, read-out: IC50) came out at 0.165 µM.

As to `O=c1[nH]c2ccc(S(=O)(=O)N3CCN(CCN4CCCCC4)CC3)c3c2c2c(cccc12)C3` [Example 26], the IC50 under setting [1] came out at 0.314 µM and the IC50 (examples table, read-out: IC50) was determined as 0.314 µM.

In the case of `O=c1[nH]c2ccc(S(=O)(=O)N3CCN(CCN4CCOCC4)CC3)c3c2c2c(cccc12)C3` [Example 27], the IC50 was determined as 0.634 µM under setting [1] and 0.634 µM (examples table, read-out: IC50).

As to `O=c1[nH]c2ccc(S(=O)(=O)N3CCN(Cc4ccncc4)CC3)c3c2c2c(cccc12)C3` [Example 28], the IC50 amounted to 0.406 µM under setting [1] and 0.406 µM (examples table, read-out: IC50).

For `CN(C)CCCN1CCN(S(=O)(=O)c2ccc3[nH]c(=O)c4cccc5c4c3c2C5)CC1` [Example 29], the IC50 reads like this: under setting [1], 0.109 µM; (examples table, read-out: IC50) 0.109 µM.

As to `O=c1[nH]c2ccc(S(=O)(=O)N3CCN(CCN4CCCC4)CC3)c3c2c2c(cccc12)C3` [Example 30], the concentration for half-maximal inhibition (IC50) is, setting by setting: under setting [1], 0.264 µM; (examples table, read-out: IC50) 0.264 µM.

For the compound `CN1CCN(CC(=O)Nc2ccc3[nH]c(=O)c4cccc5c4c3c2C5)CC1` [Example 31, 2-(4-Methyl-piperazin-1-yl)-N-(5-oxo-5,9-dihydro-4H-cyclopenta[lmn]phenanthridin-1-yl)-acetamide], the IC50 runs as follows: under setting [1], 0.045 µM; (examples table, read-out: IC50) 0.045 µM.

Turning to `CC(=O)N1CCN(CC(=O)Nc2ccc3[nH]c(=O)c4cccc5c4c3c2C5)CC1` [Example 32, 2-(4-Acetyl-piperazin-1-yl)-N-(5-oxo-5,9-dihydro-4H-cyclopenta[lmn]phenanthridin-1-yl)-acetamide], the IC50 reads like this: under setting [1], 0.036 µM; (examples table, read-out: IC50) 0.036 µM.

In the case of `O=C(CN1CCN(Cc2ccccc2)CC1)Nc1ccc2[nH]c(=O)c3cccc4c3c2c1C4` [Example 33], the IC50 under setting [1] is 0.218 µM and the IC50 (examples table, read-out: IC50) turned out to be 0.218 µM.

Turning to `O=C(CN1CCOCC1)Nc1ccc2[nH]c(=O)c3cccc4c3c2c1C4` [Example 34], the IC50 turned out to be 0.058 µM under setting [1] and 0.058 µM (examples table, read-out: IC50).

In the case of `O=C(CN1CCN(CC2CCCO2)CC1)Nc1ccc2[nH]c(=O)c3cccc4c3c2c1C4` (stereo not drawn) [Example 35], the IC50 is, setting by setting: under setting [1], 0.193 µM; (examples table, read-out: IC50) 0.193 µM.

`O=C(CNCCCc1ccccc1)Nc1ccc2[nH]c(=O)c3cccc4c3c2c1C4` [Example 36]: the 50% inhibitory concentration (IC50) was 0.188 µM under setting [1] and 0.188 µM (examples table, read-out: IC50).

For `O=C(CNCCCN1CCOCC1)Nc1ccc2[nH]c(=O)c3cccc4c3c2c1C4` [Example 37], the IC50 is, setting by setting: under setting [1], 0.178 µM; (examples table, read-out: IC50) 0.178 µM.

On to `O=C(CNCCN1CCCCC1)Nc1ccc2[nH]c(=O)c3cccc4c3c2c1C4` [Example 38], for which the IC50 runs as follows: under setting [1], 0.175 µM; (examples table, read-out: IC50) 0.175 µM.

With `O=C(CN1CCN(c2ccc(C(F)(F)F)cc2)CC1)Nc1ccc2[nH]c(=O)c3cccc4c3c2c1C4` [Example 39], the IC50 worked out at 0.219 µM under setting [1] and 0.219 µM (examples table, read-out: IC50).

As to `O=C(CN1CCN(c2ccc(F)cc2)CC1)Nc1ccc2[nH]c(=O)c3cccc4c3c2c1C4` [Example 40], the IC50 is, setting by setting: under setting [1], 0.23 µM; (examples table, read-out: IC50) 0.23 µM.
